Test results from the CheMixHub viscosity set.
“And” between values parts separate entries of the source, which are not always exact repeats. Equal values may be shown once.

How the values were obtained:
[1] = xn = mol fraction of the nth substance listed

C1C[C@@H]2[C@H]3CC[C@H](C3)[C@@H]2C1
viscosity
Conditions | 293.15 K | 298.15 K | 303.15 K | 308.15 K
100 kPa | 2.974 mPa·s and 3.07 mPa·s | 2.785 mPa·s and 2.694 mPa·s | 2.535 mPa·s and 2.454 mPa·s | 2.243 mPa·s
101 kPa | – | 2.77 mPa·s | – | –
101.33 kPa | – | 2.769 mPa·s | – | 2.283 mPa·s

CC(=O)C=C(C)C
Conditions | viscosity [mPa·s]
298.15 K, 101 kPa | 0.876

CC12CCC(CC1)C(C)(C)O2
101 kPa
Conditions | viscosity [mPa·s]
298.15 K | 2.6
303.15 K | 2.066
308.15 K | 1.856
313.15 K | 1.676
318.15 K | 1.73

CCC(=O)O
viscosity
Conditions | 293.15 K | 298.15 K | 303.15 K | 313.15 K | 318.15 K | 323.15 K
101 kPa | 1.1 mPa·s and 1.07 mPa·s and 1.102 mPa·s | – | – | – | – | 0.75 mPa·s
101.33 kPa | 1.103 mPa·s and 1.156 mPa·s and 1.101 mPa·s | 1.03 mPa·s | 0.96 mPa·s and 0.944 mPa·s | 0.8453 mPa·s and 0.901 mPa·s and 0.84 mPa·s | 0.783 mPa·s | 0.8102 mPa·s

CCC(C)c1ccccc1 (stereo unspecified)
102 kPa
Conditions | viscosity [mPa·s]
293.15 K | 0.932
303.15 K | 0.812
313.15 K | 0.712
323.15 K | 0.632

CCCCCCCCCCCCC
viscosity
Conditions | 293.15 K | 298.15 K | 308.15 K | 318.15 K | 323.15 K
100 kPa | 1.8 mPa·s and 1.803 mPa·s | 1.71 mPa·s | 1.428 mPa·s and 1.319 mPa·s | 1.215 mPa·s | 1.124 mPa·s and 1.1 mPa·s and 1.104 mPa·s
103 kPa | – | 1.63 mPa·s | 1.356 mPa·s | 1.146 mPa·s | –

CCCCCCCN
Conditions | viscosity [mPa·s]
303.15 K, 101 kPa | 0.8789

CCCCN(CCO)CCCC
Conditions | viscosity [mPa·s]
303.15 K, 100 kPa | 4.6

CCCCN(CCO)CCO
101 kPa
Conditions | viscosity [mPa·s]
303.15 K | 41.29
308.15 K | 31.59
313.15 K | 24.47
318.15 K | 19.39
323.15 K | 15.47

CCCC[n+]1ccc(C)cc1.F[B-](F)(F)F
101 kPa
Conditions | viscosity [mPa·s]
298.15 K | 196.2
313.15 K | 80.85
323.15 K | 50.22

CNN
Conditions | viscosity [mPa·s]
293.15 K, 101.3 kPa | 0.96

Cc1ccccc1Cl
viscosity
Conditions | 298.15 K | 303.15 K | 308.15 K | 313.15 K | 318.15 K
100 kPa | 0.971 mPa·s | 0.886 mPa·s | 0.808 mPa·s and 0.857 mPa·s | 0.728 mPa·s | 0.642 mPa·s and 0.763 mPa·s
101 kPa | – | 0.886 mPa·s | 0.808 mPa·s | 0.741 mPa·s and 0.728 mPa·s | 0.642 mPa·s

ClCCCCCl
101 kPa
Conditions | viscosity [mPa·s]
298.15 K | 1.319
303.15 K | 1.218
308.15 K | 1.128
313.15 K | 1.043

NN
viscosity [mPa·s]
Conditions | 293.15 K | 303 K | 313 K
101 kPa | – | 0.85 | 0.75
101.3 kPa | 0.94 | – | –

Nc1cccc(Cl)c1
101 kPa
Conditions | viscosity [mPa·s]
298.15 K | 3.495
303.15 K | 3.256

CCCC[n+]1ccccc1.[Cl][Al-]([Cl])([Cl])[Cl] + [Al+3].[Cl-].[Cl-].[Cl-]
viscosity [mPa·s], [1], 101 kPa
Conditions | 293.15 K | 298.15 K | 303.15 K | 308.15 K | 313.15 K | 318.15 K | 323.15 K
x2 = 0.46 | 29.8 | 26.4 | 22.8 | 19.9 | 17.6 | 15.8 | 13.8
x2 = 0.57 | 29 | 25.2 | 22.1 | 19.9 | 17.6 | 15.6 | 14.2

C1C[C@@H]2[C@H]3CC[C@H](C3)[C@@H]2C1 + c1ccc2c(c1)CCCC2
viscosity [mPa·s], [1], 100 kPa
Conditions | x1 = 0.1003 | x1 = 0.1991 | x1 = 0.3022 | x1 = 0.407 | x1 = 0.4996 | x1 = 0.5992 | x1 = 0.7019 | x1 = 0.7987 | x1 = 0.8983
293.15 K | 2.201 | 2.214 | 2.254 | 2.299 | 2.355 | 2.438 | 2.543 | 2.668 | 2.807
298.15 K | 1.994 | 2.008 | 2.043 | 2.088 | 2.139 | 2.214 | 2.307 | 2.416 | 2.546
303.15 K | 1.816 | 1.831 | 1.864 | 1.904 | 1.952 | 2.019 | 2.106 | 2.202 | 2.319
308.15 K | 1.664 | 1.678 | 1.708 | 1.746 | 1.79 | 1.851 | 1.929 | 2.018 | 2.122
313.15 K | 1.531 | 1.545 | 1.574 | 1.608 | 1.648 | 1.704 | 1.775 | 1.855 | 1.95
318.15 K | 1.414 | 1.428 | 1.454 | 1.486 | 1.523 | 1.574 | 1.639 | 1.712 | 1.798
323.15 K | 1.311 | 1.325 | 1.349 | 1.379 | 1.413 | 1.459 | 1.519 | 1.586 | 1.663

CCC(=O)O + c1ccccc1
[1], 101.33 kPa
Conditions | viscosity
293.15 K, x1 = 0.2 | 0.66 mPa·s and 0.66 mPa·s
293.15 K, x1 = 0.4 | 0.7 mPa·s
293.15 K, x1 = 0.5 | 0.734 mPa·s and 0.734 mPa·s
293.15 K, x1 = 0.8 | 0.889 mPa·s
303.15 K, x1 = 0.2 | 0.575 mPa·s
303.15 K, x1 = 0.4 | 0.61 mPa·s
303.15 K, x1 = 0.5 | 0.639 mPa·s
303.15 K, x1 = 0.8 | 0.774 mPa·s
308.15 K, x1 = 0.0534 | 0.5535 mPa·s
308.15 K, x1 = 0.1063 | 0.5551 mPa·s
308.15 K, x1 = 0.1575 | 0.5617 mPa·s
308.15 K, x1 = 0.2 | 0.542 mPa·s and 0.542 mPa·s
308.15 K, x1 = 0.2079 | 0.5677 mPa·s
308.15 K, x1 = 0.3318 | 0.5849 mPa·s
308.15 K, x1 = 0.4 | 0.575 mPa·s
308.15 K, x1 = 0.4118 | 0.5998 mPa·s
308.15 K, x1 = 0.5 | 0.602 mPa·s and 0.602 mPa·s
308.15 K, x1 = 0.5132 | 0.6282 mPa·s
308.15 K, x1 = 0.6132 | 0.6564 mPa·s
308.15 K, x1 = 0.7107 | 0.7012 mPa·s
308.15 K, x1 = 0.8 | 0.729 mPa·s
308.15 K, x1 = 0.8085 | 0.7408 mPa·s
308.15 K, x1 = 0.8566 | 0.7662 mPa·s
308.15 K, x1 = 0.9045 | 0.8033 mPa·s
308.15 K, x1 = 0.9524 | 0.8347 mPa·s
318.15 K, x1 = 0.2 | 0.48 mPa·s
318.15 K, x1 = 0.4 | 0.51 mPa·s
318.15 K, x1 = 0.5 | 0.533 mPa·s
318.15 K, x1 = 0.8 | 0.643 mPa·s

CCCOC(=O)CC + c1ccccc1
[1], 298.15 K, 101.33 kPa
Conditions | viscosity [mPa·s]
x1 = 0.1478 | 0.583
x1 = 0.2542 | 0.583
x1 = 0.3452 | 0.586
x1 = 0.4049 | 0.588
x1 = 0.616 | 0.604
x1 = 0.7421 | 0.616
x1 = 0.8096 | 0.622
x1 = 0.878 | 0.63
x1 = 0.9369 | 0.635

CCC(=O)O + c1ccncc1
[1], 298.15 K, 101 kPa
Conditions | viscosity [mPa·s]
x1 = 0.0999 | 1
x1 = 0.1959 | 1.135
x1 = 0.2826 | 1.311
x1 = 0.3927 | 1.587
x1 = 0.5016 | 1.943
x1 = 0.6401 | 2.388
x1 = 0.7118 | 2.48
x1 = 0.7972 | 2.353
x1 = 0.8994 | 1.755
